Experimental findings from US20200255838A1, “Selenium Cancer Therapy” (University of Massachusetts, priority 2017, published 2020) are described below.

Molecules are shown by their SMILES.

Holding throughout (type): cell-based
The test system of assay [1] is MDAMB468 and MDAMB231 cell lines. The experiment in a line: Hydrogen selenide gas toxicity assay. To be noted: gas from sodium selenide in 10% hydrochloric acid, 96-well plate. As for the experimental part:
We developed a novel gas toxicity assay in which hydrogen selenide was produced in one well of a 96-well plate and the toxic effects were measured in an adjacent well. As described, SEPHS2 KO or control KO was achieved via pLENTICRISPR lentiviral transduction, and then cells were subjected to hydrogen selenide gas toxicity. Hydrogen selenide gas was formed by dissolving sodium selenide in an acidic (10% Hydrochloric Acid) solution in the central wells of a 96-well culture plate. SEPHS2 KO and CTRL cells (for MDAMB468 and MDAMB231 cell lines) were pre-seeded at various distances from the source of hydrogen gas toxicity (distances were equal under both conditions). The viability of each set of cells was averaged and relative viability of the SEPHS2 KO cells relative to control KO cells for each cell line are shown in FIG. 8.

Assay [2] deals with U251 cells. The experiment in a line: Selenite toxicity / growth in KO cells. As for the experimental part:
FIGS. 2A-D provide evidence that SEPHS2 plays a detoxifying role in U251 GBM cell line. (A) Knockdown of either SEPHS2 or SEPSECS can block selenoprotein expression. (B) However, only SEPHS2 KO has significant toxicity. (C) Model for ‘pushing’ toxicity in which if SEPHS2 plays a detoxifying role, its KO should synergize with increased selenited input. (D) Synergy is indeed seen with 12 uM selenite treatment in conjunction with SEPHS2 KO. Growth is normalized to the already lower growth rate of the SEPHS2 KO cells, thus the bars in asterisks indicate (statistically significant) synergy.
We had classified SEPHS2 as a putative detoxifier as its substrate, selenide, is the most toxic form of selenium^12. The notion of SEPHS2 as a detoxifier has not 1 0 previously been explored, and SEPHS2 is simply known for its enzymatic role (which cannot be replaced by its isoform, SEPHS1^13) as an intermediate step in producing selenocysteine for selenocysteinyl-tRNA production. The selenocysteine producing pathway is a simple and linear pathway starting from dietary selenite—or selenite or other inorganic forms which can be converted to selenite, selenite being the most common form^14,15. Selenite is imported and converted through in an unclear manner to form selenide, which is then metabolized by SEPHS2 to form selenophosphate, accompanied by ATP hydrolysis. […]

Assay [3] concerns GPX4 and SEPHS2. As to the kind of experiment: Selenoprotein expression after selenite supplementation of media. To be noted: selenite supplemented to media.

`[SeH2]` [hydrogen selenide gas, hydrogen selenide]: in assay [1], the “Viability of SEPHS2 KO cells relative to control KO cells under hydrogen selenide gas” value is “hypersensitive”.
Take `O=[Se](O)O` [selenite]: the “Growth with selenite in conjunction with SEPHS2 KO” value in assay [2] (12 uM selenite, U251, growth normalized to SEPHS2 KO cells) is recorded as “Synergy”. Further, in assay [2] (12 μM selenite, U251 cells, both guides against SLC7A11), the “Toxicity of high-dose selenite in SLC7A11 KO cells” value is “complete rescue”. Also, in assay [3], the “Expression of selenoproteins GPX4 and SEPHS2” value is on record as “increased expression”.
